Legend:
UUO injured kidneys = test: UUO model of tubulointerstitial fibrosis; assay type: in vivo, C57BL/6 mice; conditions: 10 days
Source text: (a) Bleomycin-induced lung fibrosis model, which is a leading preclinical in vivo model of Idiopathic Pulmonary Fibrosis. [Kobayashi et al, 2016, J Immunol, 197(2):504-516] (b) Diet-induced model of NAFLD and glucose homeostasis. [Nishida et al, 2013, Lab Invest; February; 93(2):230-41] (c) MPTP Model of Parkinson's Disease, which is a commonly used paradigm for looking at neurodegeneration in the dopaminergic system of the brain which is triggered by chemically-induced mitochondrial dysfunction. [Karuppagouner et al, 2014, Sci Rep. 2014 May 2; 4:4874] (d) Ndufs4KO Leigh syndrome model. [Kruse et al, 2008, Cell Metab. April; 7(4):312-20] (e) Aged rodent model: effects on hippocampal, cognitive and motor function. [Kobilo et al, 2014, Learn Mem. January 17; 21(2):119-26; Creed et al, 2019, Neuroscience. June 15; 409:169-179; Van Skike et al, 2020, Aging Cell. 19; e13057]. Example 1 was assessed in this model. (f) UUO causes renal injury characterised by tubular cell injury, interstitial inflammation and fibrosis. It serves as a model of irreversible post-renal acute kidney injury (AKI). […]
Example 1 was assessed in the UUO model to determine the ability of the compound to attenuate progressive tubulointerstitial fibrosis and chronic kidney disease (CKD). […]

5-HT2b = molecular target: T1, 5-HT2b (Homo sapiens, UniProt P41595); test: Eurofins CEREP SafetyScreen44 panel, 5-HT2b; assay type: binding
T1 construct: purchased Eurofins CEREP (contract screening panel) SafetyScreen44
T1 sequence (P41595 whole entry): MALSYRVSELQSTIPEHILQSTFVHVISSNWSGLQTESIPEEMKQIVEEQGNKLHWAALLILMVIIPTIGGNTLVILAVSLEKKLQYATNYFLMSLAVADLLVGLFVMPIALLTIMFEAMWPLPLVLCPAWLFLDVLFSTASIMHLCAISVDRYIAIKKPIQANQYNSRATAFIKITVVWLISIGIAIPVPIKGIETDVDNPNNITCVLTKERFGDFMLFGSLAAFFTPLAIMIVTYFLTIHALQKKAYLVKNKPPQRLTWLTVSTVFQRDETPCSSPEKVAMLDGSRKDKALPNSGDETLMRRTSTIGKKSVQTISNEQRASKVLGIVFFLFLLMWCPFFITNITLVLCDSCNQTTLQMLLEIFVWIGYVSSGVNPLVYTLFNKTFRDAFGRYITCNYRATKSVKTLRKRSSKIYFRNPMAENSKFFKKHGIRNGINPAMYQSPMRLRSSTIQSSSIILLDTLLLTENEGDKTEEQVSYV
Source text: Example 2 was subject to pharmacological profiling in the Eurofins CEREP SafetyScreen44 panel.

USP30 = molecular target: T2, USP30 (Homo sapiens, UniProt Q70CQ3); test: USP30 endogenous cellular target engagement western blot assay (Cell TE WB); assay type: cell-based; conditions: Hela cells stably overexpressing YFP-Parkin, 1 hour
T2 construct: USP30 endogenous cellular target engagement western blot (WB) assay; endogenous in cells; host or cells: HeLa cells stably overexpressing YFP-Parkin
T2 sequence (Q70CQ3 whole entry): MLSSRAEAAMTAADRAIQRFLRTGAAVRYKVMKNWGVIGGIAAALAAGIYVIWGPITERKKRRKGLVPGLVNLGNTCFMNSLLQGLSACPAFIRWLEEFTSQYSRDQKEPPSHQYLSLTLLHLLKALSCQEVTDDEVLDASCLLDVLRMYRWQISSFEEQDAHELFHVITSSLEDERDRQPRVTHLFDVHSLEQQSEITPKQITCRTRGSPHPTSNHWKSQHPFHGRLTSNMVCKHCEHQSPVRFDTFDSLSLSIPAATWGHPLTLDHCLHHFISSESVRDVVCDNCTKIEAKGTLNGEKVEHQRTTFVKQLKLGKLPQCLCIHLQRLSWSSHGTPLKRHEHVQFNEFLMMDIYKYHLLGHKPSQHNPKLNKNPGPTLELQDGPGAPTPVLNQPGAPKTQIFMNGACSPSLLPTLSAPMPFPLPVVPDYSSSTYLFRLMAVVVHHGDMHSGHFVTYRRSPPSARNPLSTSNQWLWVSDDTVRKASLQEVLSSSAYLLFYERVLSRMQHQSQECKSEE
Experimental: Hela cells stably overexpressing YFP-Parkin were seeded into 6 well dishes. Once adhered, cells were treated with appropriate concentrations of test compounds or vehicle control for 1 hour at 37° C., 5% CO2. Whole cell lysates were prepared by scraping the cells into cold PBS, centrifuging and lysing in lysis buffer (50 mM Tris-base, pH 7.5, 50 mM NaCl, 1% NP-40/Igepal CA-630, 2 mM MgCl2, 10% Glycerol, 5 mM beta-mercaptoethanol, cOmplete mini tablets EDTA free (Roche), PhosStop tablets (Roche)) for 10 mins. The equivalent of 20 μg of protein from the cleared cell lysate was incubated with a final conc of 2.5 μM HA-Ahx-Ahx-Ub-VME probe at room temperature. The reaction was stopped by addition of 5×SDS sample loading buffer and proteins separated by SDS PAGE and western blotting. USP30 was detected using an anti-USP30 Sheep S746D antibody (MRC PPU Reagents and Services) and a rabbit anti sheep secondary IgG (H+L) horseradish peroxidase conjugated (Thermo #31480) and visualised using ECL reagent (GE #RPN2109) on a GE LAS4000 imager. Target engagement was measured by quantitation of the bands corresponding to USP30 and USP30 bound to the Ub-VME probe and expression of this proportion compared to vehicle treated control.
MDR1-MDCK (Madin-Darby Canine Kidney cell monolayer) (in vitro) flux assay. Cell TE WB: USP30 endogenous cellular target engagement western blot (WB) assay. […]

## COC[C@@H]1C[C@@H](NC(=O)c2ncc(-c3cccc(OC(F)(F)F)c3)o2)CN1C#N [Example 1, N-((3R,5S)-1-Cyano-5-(methoxymethyl)pyrrolidin-3-yl)-5-(3-(trifluoromethoxy)phenyl)oxazole-2-carboxamide]
UUO injured kidneys; 15, 5 and 1.5 mg/kg oral BID
  α-SMA levels in UUO injured kidneys v vehicle treated controls: statistical reduction in α-SMA levels
UUO injured kidneys; 15, 5 and 1.5 mg/kg p.o. BID
  collagen deposition (picrosirius red staining) in ligated kidneys: statistically reduced collagen deposition

## C[C@@H]1C[C@@H](NC(=O)c2ncc(-c3cccc(OC(F)(F)F)c3)o2)CN1C#N [Example 2, N-((3R,5R)-1-Cyano-5-methylpyrrolidin-3-yl)-5-(3-(trifluoromethoxy)phenyl)oxazole-2-carboxamide]
5-HT2b
  inhibition at 10 µM: 32%
USP30
  EC50: 7 nM

From patent US20230119013A1, “N-CYANOPYRROLIDINES WITH ACTIVITY AS USP30 INHIBITORS” (MISSION THERAPEUTICS LIMITED, priority 2020, published 2023)
